molecular target: T1, STING (Homo sapiens, UniProt Q86WV6, G230A/H232R/R293Q/R71H); assay: STING reporter assay: luciferase reporter activity in THP1-Dual KO-IFNAR2 cells stimulated with 2'3'cGAMP; format: cell-based; settings: 2′3′cGAMP 15 μM final, 24h, read-out: hSTING: EC50
T1 construct: host or cells: THP1-Dual KO-IFNAR2 cells
Outline: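 THP1-Dual KO-IFNAR2 cells (2×10E6 cells/mL) incubated with compounds at 0.0017-100 μM final plus Lipofectamine-transfected 2′3′cGAMP (15 μM final), 24 h at 37 °C, 5% CO2. Luciferase in supernatant read by QUANTI-Luc luminescence; EC50 derived.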

T1 sequence (Q86WV6 whole entry R71H/G230A/H232R/R293Q): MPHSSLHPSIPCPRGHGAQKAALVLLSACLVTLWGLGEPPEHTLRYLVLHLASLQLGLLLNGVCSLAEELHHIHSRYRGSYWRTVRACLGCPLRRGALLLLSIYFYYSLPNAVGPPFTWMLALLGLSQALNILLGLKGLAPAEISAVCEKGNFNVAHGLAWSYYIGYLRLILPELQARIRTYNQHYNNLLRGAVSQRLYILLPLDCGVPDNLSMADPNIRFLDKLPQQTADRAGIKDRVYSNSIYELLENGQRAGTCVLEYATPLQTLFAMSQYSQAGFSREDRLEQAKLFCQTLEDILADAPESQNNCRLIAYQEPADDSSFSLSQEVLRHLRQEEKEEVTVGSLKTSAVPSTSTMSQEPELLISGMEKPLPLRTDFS

Row | SMILES | EC50 [µM]
1 | O=C(Nc1c[nH]c2cc(F)c(F)cc12)C(=O)N1CCN(Cc2ccc(C(F)(F)F)cc2)CC1 [Compound 253] | 0.2 to 1
2 | Cc1ccccc1N1C2CCC1CC(NC(=O)C(=O)Nc1c[nH]c3cc(F)c(F)cc13)C2 (stereo not shown) [Compound 254] | 0.2 to 1
3 | O=C(Nc1c[nH]c2cc(F)c(F)cc12)C(=O)NC1CCC(Oc2ccc(C(F)(F)F)cn2)CC1 (stereo not shown) [Compound 255] | 5 to 100
4 | O=C(Nc1c[nH]c2cc(F)c(F)cc12)C(=O)NC1CCN(Cc2ccccc2)C2(CCCCC2)C1 (stereo not shown) [Compound 256] | 1 to 5
5 | O=C(NCC1COc2ccccc2O1)C(=O)Nc1c[nH]c2cc(F)c(F)cc12 (stereo not shown) [Compound 261, N-(5,6-difluoro-1H-indol-3-yl)-N′-[(2,3-dihydro-1,4-benzodioxin-2-yl)methyl] ethanediamide] | 0.2 to 1
6 | O=C(Nc1ccc2c(cnn2Cc2cccc(F)c2)c1)C(=O)Nc1c[nH]c2cc(F)c(F)cc12 [Compound 262, N-(5,6-difluoro-1H-indol-3-yl)-N′-{1-[(3-fluorophenyl)methyl]-1H-indazol-5-yl}ethanediamide] | 0.2 to 1
7 | O=C(Nc1ccc(C(F)(F)F)cc1)C(=O)Nc1c[nH]c2ccc(I)cc12 [Compound 263] | 0.2 to 1
8 | O=C(Nc1c[nH]c2cc(F)c(F)cc12)C(=O)N[C@H]1CCN(c2ccc(C(F)(F)F)cn2)C1 [Compound 264, (S)-N-(5,6-difluoro-1H-indol-3-yl)-N′-(1-(5-(trifluoromethyl)pyridin-2-yl)pyrrolidin-3-yl)oxalamide] | 0.2 to 1
9 | O=C(Nc1ccc(-n2cncn2)c(Cl)c1)C(=O)Nc1c[nH]c2cc(F)c(F)cc12 [Compound 265, N′-[3-chloro-4-(1H-1,2,4-triazol-1-yl)phenyl]-N-(5,6-difluoro-1H-indol-3-yl)ethanediamide] | 1 to 5
10 | CN1CCOc2cc(NC(=O)C(=O)Nc3c[nH]c4cc(F)c(F)cc34)ccc21 [Compound 266, N-(5,6-difluoro-1H-indol-3-yl)-N′-(4-methyl-3,4-dihydro-2H-1,4-benzoxazin-7-yl)ethanediamide] | 0.2 to 1
11 | CC(C)(C)OC(=O)N1CC2CC(NC(=O)C(=O)Nc3c[nH]c4cc(F)c(F)cc34)CC2C1 (stereo not shown) [Compound 267, tert-butyl 5-{[(5,6-difluoro-1H-indol-3-yl)carbamoyl] formamido}-octahydrocyclopenta[c] pyrrole-2-carboxylate] | 0.2 to 1
12 | O=C(Nc1ccc2c(c1)CCCC2=O)C(=O)Nc1c[nH]c2cc(F)c(F)cc12 [Compound 268, N-(5,6-difluoro-1H-indol-3-yl)-N′-(5-oxo-5,6,7,8-tetrahydro-naphthalen-2-yl)ethanediamide] | 0.2 to 1
13 | O=C(NCCc1ccc(C(F)(F)F)cn1)C(=O)Nc1c[nH]c2cc(F)c(F)cc12 [Compound 269, N-(5,6-difluoro-1H-indol-3-yl)-N′-{2-[5-(trifluoromethyl)pyridin-2-yl]ethyl}ethanediamide] | 0.2 to 1
14 | N#Cc1ccc(OC2CCC(NC(=O)C(=O)Nc3c[nH]c4cc(F)c(F)cc34)CC2)cc1 (stereo not shown) [Compound 270, N′-[4-(4-cyanophenoxy)cyclohexyl]-N-(5,6-difluoro-1H-indol-3-yl)ethanediamide] | 0.2 to 1
15 | CC(C)(C)OC(=O)N1CCC2(CC1)CC(NC(=O)C(=O)Nc1c[nH]c3cc(F)c(F)cc13)CO2 (stereo not shown) [Compound 271, tert-butyl 3-{[(5,6-difluoro-1H-indol-3-yl)carbamoyl] formamido}-1-oxa-8-azaspiro[4.5]decane-8-carboxylate] | 1 to 5
16 | COc1ccc(Oc2ccc(NC(=O)C(=O)Nc3c[nH]c4cc(F)c(F)cc34)cc2C)cn1 [Compound 272, N-(5,6-difluoro-1H-indol-3-yl)-N′-{4-[(6-methoxypyridin-3-yl)oxy]-3-methylphenyl} ethanediamide] | 0.2 to 1
17 | O=C(Nc1ccc2c(c1)oc(=O)n2Cc1ccccc1)C(=O)Nc1c[nH]c2cc(F)c(F)cc12 [Compound 273, N′-(3-benzyl-2-oxo-2,3-dihydro-1,3-benzoxazol-6-yl)-N-(5,6-difluoro-1H-indol-3-yl)ethanediamide] | 0.2 to 1
18 | O=C(Nc1cnc2c(c1)CCC2)C(=O)Nc1c[nH]c2cc(F)c(F)cc12 [Compound 274, N′-{5H,6H,7H-cyclopenta[b]pyridin-3-yl}-N-(5,6-difluoro-1H-indol-3-yl)ethanediamide] | 1 to 5
19 | O=C(NCC(=O)c1cccc(C(F)(F)F)c1)C(=O)Nc1c[nH]c2cc(F)c(F)cc12 [Compound 275, N-(5,6-difluoro-1H-indol-3-yl)-N′-{2-oxo-2-[3-(trifluoromethyl)phenyl]ethyl} ethanediamide] | 0.2 to 1
20 | CC(COc1ccc(C(F)(F)F)cc1)NC(=O)C(=O)Nc1c[nH]c2cc(F)c(F)cc12 (stereo not shown) [Compound 276, N-(5,6-difluoro-1H-indol-3-yl)-N′-{1-[4-(trifluoromethyl)phenoxy]propan-2-yl}ethanediamide] | 0.2 to 1
21 | O=C(NCC(c1ccccc1)n1ccnc1)C(=O)Nc1c[nH]c2cc(F)c(F)cc12 (stereo not shown) [Compound 277, N-(5,6-difluoro-1H-indol-3-yl)-N′-[2-(1H-imidazol-1-yl)-2-phenylethyl] ethanediamide] | 5 to 100
22 | O=C(Nc1c[nH]c2cc(F)c(F)cc12)C(=O)NC1CCOC2(CCCC2)C1 (stereo not shown) [Compound 278] | 1 to 5

Row | SMILES | EC50 [µM]
23 | O=C(Nc1c[nH]c2cc(F)c(F)cc12)C(=O)NC1CCC2(CCCC2)C1 (stereo not shown) [Compound 279] | 0.2 to 1
24 | O=C(Nc1c[nH]c2cc(F)c(F)cc12)C(=O)NC1CCC2(CCCCC2)C1 (stereo not shown) [Compound 280] | 0.2 to 1
25 | O=C(Nc1c[nH]c2cc(F)c(F)cc12)C(=O)NC1CCCC2(CCCCC2)C1 (stereo not shown) [Compound 281] | 0.2 to 1
26 | O=C(Nc1c[nH]c2cc(F)c(F)cc12)C(=O)NC1CCC2(CCCCO2)CC1 (stereo not shown) [Compound 282] | 0.2 to 1
27 | CC(CN(C)c1ccccn1)NC(=O)C(=O)Nc1c[nH]c2cc(F)c(F)cc12 (stereo not shown) [Compound 284] | 1 to 5
28 | Cc1ccc(CNC(=O)C(=O)Nc2c[nH]c3ccc(-c4cnn(CC(F)(F)F)c4)cc23)cc1OC(F)(F)F [Compound 285] | 0.04 to 0.2
29 | N#Cc1cc(NC(=O)C(=O)Nc2c[nH]c3cc(F)c(F)cc23)ccc1N1CCCC1 [Compound 286, N′-[3-cyano-4-(pyrrolidin-1-yl)phenyl]-N-(5,6-difluoro-1H-indol-3-yl)ethanediamide] | 0.2 to 1
30 | COc1ncc(NC(=O)C(=O)Nc2c[nH]c3cc(F)c(F)cc23)cc1C(F)(F)F [Compound 287, N-(5,6-difluoro-1H-indol-3-yl)-N′-[6-methoxy-5-(trifluoromethyl)pyridin-3-yl]ethanediamide] | 1 to 5
31 | CC(NC(=O)C(=O)Nc1c[nH]c2cc(F)c(F)cc12)c1cccc(OC(F)(F)F)c1 (stereo not shown) [Compound 288, N-(5,6-difluoro-1H-indol-3-yl)-N′-{1-[3-(trifluoromethoxy)phenyl]ethyl} ethanediamide] | 0.2 to 1
32 | Cc1cc(NC(=O)C(=O)Nc2c[nH]c3cc(F)c(F)cc23)ccc1OC(F)(F)F [Compound 289, N-(5,6-difluoro-1H-indol-3-yl)-N′-[3-methyl-4-(trifluoromethoxy)phenyl] ethanediamide] | 0.04 to 0.2
33 | O=C(NCCOc1cccnc1)C(=O)Nc1c[nH]c2cc(F)c(F)cc12 [Compound 290, N-(5,6-difluoro-1H-indol-3-yl)-N′-[2-(pyridin-3-yloxy)ethyl] ethanediamide] | 5 to 100
34 | C[C@@H](NC(=O)C(=O)Nc1c[nH]c2cc(F)c(F)cc12)c1cccc(C(F)(F)F)c1 [Compound 291, N-(5,6-difluoro-1H-indol-3-yl)-N′-[(1R)-1-[3-(trifluoromethyl)phenyl]ethyl] ethanediamide] | 0.2 to 1
35 | O=C(Nc1ccc2c(c1)OC(F)(F)O2)C(=O)Nc1c[nH]c2cc(F)c(F)cc12 [Compound 292, N-(5,6-difluoro-1H-indol-3-yl)-N′-(2,2-difluoro-2H-1,3-benzodioxol-5-yl)ethanediamide] | 0.2 to 1
36 | COc1cc(NC(=O)C(=O)Nc2c[nH]c3cc(F)c(F)cc23)ccc1N1CCCC1 [Compound 293, N-(5,6-difluoro-1H-indol-3-yl)-N′-[3-methoxy-4-(pyrrolidin-1-yl)phenyl] ethanediamide] | 0.2 to 1
37 | O=C(NCCN1CCCc2ccccc21)C(=O)Nc1c[nH]c2cc(F)c(F)cc12 [Compound 294, N-(5,6-difluoro-1H-indol-3-yl)-N′-[2-(1,2,3,4-tetrahydroquinolin-1-yl)ethyl]ethanediamide] | 0.2 to 1
38 | C#Cc1cc(NC(=O)C(=O)Nc2c[nH]c3cc(F)c(F)cc23)ccc1Cl [Compound 295, N′-(4-chloro-3-ethynylphenyl)-N-(5,6-difluoro-1H-indol-3-yl)ethanediamide] | 0.2 to 1
39 | O=C(Nc1cnc2sccc2c1)C(=O)Nc1c[nH]c2cc(F)c(F)cc12 [Compound 296, N′-(5,6-difluoro-1H-indol-3-yl)-N-{thieno[2,3-b]pyridin-5-yl}ethanediamide] | 0.2 to 1
40 | CC(C)(C)OC(=O)N1CCC2(CCC(NC(=O)C(=O)Nc3c[nH]c4cc(F)c(F)cc34)CC2)CC1 [Compound 297, tert-butyl 9-{[(5,6-difluoro-1H-indol-3-yl)carbamoyl] formamido}-3-azaspiro[5.5]undecane-3-carboxylate] | 0.2 to 1
41 | C[C@H](NC(=O)C(=O)Nc1c[nH]c2cc(F)c(F)cc12)c1ccc(C(F)(F)F)cn1 [Compound 298, N-(5,6-difluoro-1H-indol-3-yl)-N′-[(1S)-1-[5-(trifluoromethyl)pyridin-2-yl]ethyl]ethanediamide] | 0.2 to 1
42 | COc1ccc(CCNC(=O)C(=O)Nc2c[nH]c3cc(F)c(F)cc23)cn1 [Compound 299, N-(5,6-difluoro-1H-indol-3-yl)-N′-[2-(6-methoxypyridin-3-yl)ethyl]ethanediamide] | 1 to 5
43 | O=C(Nc1c[nH]c2cc(F)c(F)cc12)C(=O)NC1CCC(O)(C(F)(F)F)CC1 (stereo not shown) [Compound 300, N-(5,6-difluoro-1H-indol-3-yl)-N′-[4-hydroxy-4-(trifluoromethyl)cyclohexyl] ethanediamide] | 5 to 100
